According to PMC4076210, “Discovery of Novel AKT Inhibitors with Enhanced Anti-Tumor Effects in Combination with the MEK Inhibitor” (PLoS ONE, 2014):

Test system: hematological tumor cell lines
Assay: 3-day proliferation assay (CellTiter-Glo)
Format: cell-based, human
Conditions: for IC50: Homo sapiens
Experimental: Various tumor cell lines were obtained from different sources including; the American Type Cell Culture Collection, the Developmental Therapeutics Program, the National Cancer Institute, the German Resource Center for Biological Material and the European Collection of Animal Cell Cultures. Cell lines were typically grown in […] containing 10% FBS. Some cell lines were grown in media specified by the vendor. A 3-day proliferation assay using CellTiter-Glo (CTG, Promega) was performed to measure the growth inhibition by the compounds at 0–30 µM. Cell growth was determined relative to untreated (DMSO) controls. EC50's were calculated from inhibition curves using a 4- or 6-parameter fitting algorithm in the Assay Client application.

Structure (SMILES): Cn1ncc(Cl)c1-c1cc(C(=O)N[C@H](CN)Cc2cccc(F)c2)sc1Cl [GSK2110183]
- hematological cell lines sensitive (EC50<1 µM) (112 cell lines, 3 days, CTG): 65%
- IC50 (1A2, 1A2 cell line, Burkitt's Lymphoma, B Cell): 0.104 µM
- IC50 (697 cell line, ALL, pre-B Cell): 0.737 µM
- IC50 (ARH-77, ARH77 cell line, Multiple Myeloma, B Cell): 0.313 µM
- IC50 (B-cell, BDCM cell line, AML, B Cell): 0.026 µM
- IC50 (B-cell, CESS cell line, AML, B Cell): 0.475 µM
- IC50 (B-cell, HKB-11 cell line, Burkitt's Lymphoma, B Cell): 0.167 µM
- IC50 (B-cell, HS-Sultan cell line, Burkitt's Lymphoma, B Cell): 0.649 µM
- IC50 (B-cell, KARPAS-231 cell line, ALL, B Cell): 0.119 µM
- IC50 (B-cell, MN60 cell line, ALL, B Cell): 1.93 µM
- IC50 (B-cell, Namalwa cell line, Burkitt's Lymphoma, B Cell): 0.908 µM
- IC50 (B-cell, SD-1 cell line, ALL, B Cell): 0.01 µM
- IC50 (B-cell, Tanoue cell line, ALL, B Cell): 1.04 µM
- IC50 (BC1, BC1 cell line, Burkitt's Lymphoma, B Cell): 2.1 µM
- IC50 (BC-3, BC3 cell line, Burkitt's Lymphoma, B Cell): 16.3 µM
- IC50 (BV-173, BV173 cell line, CML, pre-B Cell): 1.21 µM
- IC50 (CA46, CA46 cell line, Burkitt's Lymphoma, B Cell): 2.32 µM
- IC50 (CCRF-CEM, CCRFCEM cell line, ALL, T Cell): 0.369 µM
- IC50 (CCRF-SB, CCRFSB cell line, ALL, B Cell): 0.056 µM
- IC50 (CEM/C1, CEM/C1 cell line, ALL, T Cell): 0.109 µM
- IC50 (CEM/C2, CEM/C2 cell line, ALL, T Cell): 0.048 µM
- IC50 (CML-T1, CML-T1 cell line, CML, T Cell): 5.08 µM
- IC50 (CRO-AP5, CRO-AP5 cell line, Primary Effusion Lymphoma (PEL), B Cell): 0.067 µM
- IC50 (DB, DB cell line, Non-Hodgkin's Lymphoma, B Cell): 6.32 µM
- IC50 (DG-75, DG75 cell line, Burkitt's Lymphoma, B Cell): 14.9 µM
- IC50 (DOHH-2, DOHH-2 cell line, Non-Hodgkin's Lymphoma, B Cell): 0.038 µM
- IC50 (Daudi, DAUDI cell line, Burkitt's Lymphoma, B Cell): 0.441 µM
- IC50 (EB1, EB1 cell line, Burkitt's Lymphoma, B Cell): 0.11 µM
- IC50 (EB2, EB2 cell line, Burkitt's Lymphoma, B Cell): 0.631 µM
- IC50 (EB-3, EB3 cell line, Burkitt's Lymphoma, B Cell): 2.97 µM
- IC50 (EM-2, EM2 cell line, CML, Unspecified): 1.22 µM
- IC50 (GA-10, GA-10 cell line, Burkitt's Lymphoma, B Cell): 0.237 µM
- IC50 (GDM-1, GDM-1 cell line, AML, Monoblast): 2.82 µM
- IC50 (HD-MY-Z cell line, Hodgkin's Lymphoma, Unspecified): 9.12 µM
- IC50 (HEL 92.1.7, HEL92.1.7 cell line, AML, Erythroleukemia): 14.1 µM
- IC50 (HH, HH cell line, Non-Hodgkin's Lymphoma (CTCL), T Cell): 0.301 µM
- IC50 (HL-60, HL-60 cell line, AML, Myeloblast): 2.58 µM
- IC50 (HSB2, HSB2 cell line, ALL, T Cell): 5.35 µM
- IC50 (HT, HT cell line, Burkitt's Lymphoma, B Cell): 0.206 µM
- IC50 (HuT78, HuT78 cell line, Non-Hodgkin's Lymphoma (CTCL), T Cell): 0.544 µM
- IC50 (J.gamma1, J.Gamma-1 cell line, ALL, T Cell): 0.057 µM
- IC50 (JIYOYE, JIYOYE cell line, Burkitt's Lymphoma, B Cell): 1.85 µM
- IC50 (JM1, JM1 cell line, Burkitt's Lymphoma, pre-B Cell): 0.759 µM
- IC50 (Jurkat, Jurkat cell line, ALL, T Cell): 0.028 µM
- IC50 (K562, K562 cell line, CML, Lymphoblast): 4.45 µM
- IC50 (KG-1, KG-1 cell line, AML, B Cell): 0.061 µM
- IC50 (KU812, Ku812 cell line, CML, Basophilic Leukocyte): 0.187 µM
- IC50 (Kasumi 1, Kasumi-1 cell line, AML, Myeloblast): 0.131 µM
- IC50 (Kasumi-2 cell line, AML, Myeloblast): 0.996 µM
- IC50 (L-428, L428 cell line, Hodgkin's Lymphoma, Unspecified): 0.00135 µM
- IC50 (MC116, MC116 cell line, Burkitt's Lymphoma, B Cell): 1.08 µM
- IC50 (MEG-01, MEG01 cell line, CML, Megakaryoblastic): 6.14 µM
- IC50 (MHH-CALL-3 cell line, ALL, pre-B Cell): 1.22 µM
- IC50 (MHH-PREB-1, MHH-PREB-1 cell line, Non-Hodgkin's Lymphoma, B Cell): 1.92 µM
- IC50 (ML-2, ML-2 cell line, AML, Myelomonocytic): 0.981 µM
- IC50 (MOLT-3, MOLT3 cell line, ALL, T Cell): 0.062 µM
- IC50 (MOLT-4, Molt-4 cell line, ALL, T Cell): 0.014 µM
- IC50 (MOLT-16, MOLT16 cell line, ALL, T Cell): 0.481 µM
- IC50 (MV4-11, MV-4-11 cell line, AML, Myelomonocytic): 1.27 µM
- IC50 (NALM-6, Nalm-6 cell line, ALL, pre-B Cell): 0.352 µM
- IC50 (NC-37, NC-37 cell line, Burkitt's Lymphoma, B Cell): 1.78 µM
- IC50 (NOMO-1, Nomo-1 cell line, AML, B Cell): 0.104 µM
- IC50 (NU-DHL-1, NU-DHL-1 cell line, Burkitt's Lymphoma, B Cell): 0.064 µM
- IC50 (OCI-AML2, OCI-AML-2 cell line, AML, B Cell): 10.3 µM
- IC50 (OCI-AML-3, OCI-AML-3 cell line, AML, B Cell): 0.113 µM
- IC50 (OCI-M1, OCI-M1 cell line, AML, B Cell): 1.13 µM
- IC50 (P3HR-1, P3HR-1 cell line, Burkitt's Lymphoma, B Cell): 0.069 µM
- IC50 (PLB-985, PLB985 cell line, AML, B Cell): 2.99 µM
- IC50 (Pfeiffer, Pfeiffer cell line, Non-Hodgkin's Lymphoma, B Cell): 0.013 µM
- IC50 (RCH-ACV cell line, ALL, pre-B Cell): 0.668 µM
- IC50 (RCK8, RC-K8 cell line, Non-Hodgkin's Lymphoma (Histiocytic), B Cell): 5.39 µM
- IC50 (REH, Reh cell line, ALL, pre-B Cell): 0.292 µM
- IC50 (RL, RL cell line, Non-Hodgkin's Lymphoma, B Cell): 0.225 µM
- IC50 (RPMI-6666, RPMI 6666 cell line, Hodgkin's Lymphoma, Lymphoblast): 0.135 µM
- IC50 (RS4-11, RS4;11 cell line, ALL, B Cell): 0.539 µM
- IC50 (Raji, Raji cell line, Burkitt's Lymphoma, B Cell): 6.59 µM
- IC50 (Rec1, REC-1 cell line, Non-Hodgkin's Lymphoma, B Cell): 3.69 µM
- IC50 (SC-1, SC1 cell line, Burkitt's Lymphoma, B Cell): 2.13 µM
- IC50 (SEM cell line, ALL, pre-B Cell): 0.347 µM
- IC50 (SKO-007, SKO-007 cell line, Multiple Myeloma, B Cell): 6.77 µM
- IC50 (SR, SR cell line, Non-Hodgkin's Lymphoma, Lymphoblast): 2.51 µM
- IC50 (ST486, ST486 cell line, Burkitt's Lymphoma, B Cell): 2.45 µM
- IC50 (SU-DHL10, SU-DHL-10 cell line, Non-Hodgkin's Lymphoma, B Cell): 0.175 µM
- IC50 (SU-DHL-4, SU-DHL-4 cell line, Non-Hodgkin's Lymphoma, B Cell): 0.114 µM
- IC50 (SU-DHL-5, SU-DHL-5 cell line, Non-Hodgkin's Lymphoma, B Cell): 0.153 µM
- IC50 (SU-DHL-6, SU-DHL-6 cell line, Non-Hodgkin's Lymphoma, B Cell): 0.063 µM
- IC50 (SU-DHL-16, SU-DHL-16 cell line, Non-Hodgkin's Lymphoma, B Cell): 0.062 µM
- IC50 (SUP-B15, SUP B15 cell line, ALL, B Cell): 1.94 µM
- IC50 (T-cell, 8E5 cell line, ALL, T Cell): 0.043 µM
- IC50 (T-cell, CEM/C3 cell line, ALL, T Cell): 0.035 µM
- IC50 (T-cell, I2.1 cell line, ALL, T Cell): 0.048 µM
- IC50 (T-cell, J.Cam.1.6 cell line, ALL, T Cell): 0.11 µM
- IC50 (T-cell, J.RT-T3.5 cell line, ALL, T Cell): 0.054 µM
- IC50 (T-cell, JR45.01 cell line, ALL, T Cell): 0.033 µM
- IC50 (T-cell, LOUCY cell line, ALL, T Cell): 0.063 µM
- IC50 (T-cell, MJ cell line, Non-Hodgkin's Lymphoma (CTCL), T Cell): 4.73 µM
- IC50 (T-cell, SUPTI(VB) cell line, ALL, T Cell): 0.2 µM
- IC50 (TO 175.T, TO 175.T cell line, Hodgkin's Lymphoma, Unspecified): 8.49 µM
- IC50 (Toledo, Toledo cell line, Non-Hodgkin's Lymphoma, B Cell): 1.15 µM
- IC50 (U-937, U937 cell line, Non-Hodgkin's Lymphoma (Histiocytic), Monocyte): 0.026 µM
